Measured values from US11963995B2, “Methods comprising desmopressin” (Ferring B.V., priority 2008, dated 2024).

What was measured:
[1] = test system: adult patients with nocturia; test: Duration of total sleep time, change from baseline to Day 28 (Part I); format: in vivo, human; conditions: final visit (Day 28)
Experimental: (§1) All treatments were administered orally once per night approximately 1 hour prior to bedtime; subjects were instructed to limit their fluid intake prior to drug self-administration. […] Randomization was to be stratified by age (<65, ≥65 years) and by the absence/presence of nocturnal polyuria, defined as a ratio of nighttime urine volume/24-hour urine volume 33%. To achieve the desired number of subjects within each stratum, enrollment of subjects in a particular stratum (age and/or presence/absence of nocturnal polyuria) could be halted. If this was necessary, all investigative sites were to be informed in writing at least 1 week in advance to stop screening in a population of subjects.
The secondary efficacy endpoints were: (1) durability of effect achieved in Part I; (2) change in initial period of undisturbed sleep, defined as the elapsed time in minutes from going to bed with the intention of sleeping to the time of awakening for the first nocturnal void; and (3) change in duration of total sleep time. Additional secondary endpoints were collected, e.g., change in nocturia-specific quality of life as assessed by scores on the International Consultation on Incontinence Modular Questionnaire—Noctuira and the Noctuira Quality of Life Questionnaire, change in quality of sleep as assessed by the global score of the Pittsburgh Sleep Quality Index, and change in overall quality of life as assessed by the short form—12v2. A description of the additional secondary efficacy endpoints and their accompanying data are not provided herein.
Total sleep time increased in all treatment groups in Part I; however, no pattern was observed by dose of desmopressin. Based on F-tests of effects, computed overall sleep duration and reported overall sleep duration were statistically significant predictors of change from baseline to Day 28 in total sleep time (p<0.0001).

[2] = test system: adult patients with nocturia; test: Number of nocturnal voids, change from baseline to Day 28 (Study CS29 Part I); format: in vivo, human; conditions: for fewer nocturnal urinary voids per night compared to baseline before treatment (median): Day 28; for Change from baseline to final visit (Day 28) of nocturnal voids, mean / Change from baseline to final visit (Day 28) of nocturnal voids, median: ITT, Part I; for minimum effective dose (MED): primary endpoint nocturnal voids
Experimental: The term “nocturnal void” as used herein refers to a void occurring from 5 minutes after bedtime until rising in the morning with the intention of getting up.
as §1
A total of 750 subjects were planned to be enrolled, with approximately 150 subjects per treatment group. Part I of the study was conducted in 7 visits. Screening (Visit 1) occurred within 21 days of dosing (Day 1, Visit 2); subjects returned for follow-up visits on Days 4, 8, 15, 22, and 28 (end of Part I). Duration of treatment in Part I was 28 days.
Subjects who met the following inclusion criteria were eligible for the study: provided written informed consent prior to the performance of any study-related activity, defined as any procedure that would not have been performed during the normal management of the subject; and was a male or female subject, 18 years of age and older, with an average of ≥2 nocturnal voids per night determined via a 3-day frequency-volume chart during the screening period
All treatments were administered orally once per night approximately 1 hour prior to bedtime. Subjects were instructed to place the tablet under their tongue, without water. Subjects were provided with sufficient study drug for the duration of Part I.
The primary endpoints for efficacy assessment were: (1) change in mean number of nocturnal voids from baseline evaluation to final visit (Day 28); and (2) proportion of subjects with >33% reduction in the mean number of nocturnal voids from baseline to final visit (Day 28). A further description and corresponding data directed to the second primary endpoint (i.e., portion of subjects with >33% reduction in the mean number of nocturnal voids) are not provided herein.
Of the 799 randomized subjects in Part I, 757 subjects who received at least 1 dose of study drug and had follow-up data were included in the intent to treat (ITT) analysis dataset. […] All 799 randomized subjects received at least 1 dose of study drug (desmopressin or placebo) and had at least 1 safety assessment and, therefore, were included in the safety analysis dataset.
Missing values concerning number of nocturnal voids at Day 8, Day 15, Day 22, and Day 28 in Part I were imputed using last observation carried forward (LOCF). Missing values concerning sleep disturbance and urine volume (for average 24-hour urine volume and average nocturnal urine volume) were not imputed.

[3] = 10 ug, all males with monitoring
[4] = 10 ug, females over 50 years of age
[5] = 10 ug, females over 65 years of age
[6] = 25 ug, all males with monitoring
[7] = 25 ug, females over 50 years of age
[8] = 25 ug, females over 65 years of age
[9] = 50 ug, all males with monitoring
[10] = 50 ug, females over 50 years of age
[11] = 50 ug, females over 65 years of age
[12] = 100 ug, all males with monitoring
[13] = 100 ug, females over 50 years of age
[14] = 100 ug, females over 65 years of age

With `NC(=O)CC[C@@H]1NC(=O)[C@H](Cc2ccccc2)NC(=O)[C@H](Cc2ccc(O)cc2)NC(=O)CCSSC[C@@H](C(=O)N2CCC[C@H]2C(=O)N[C@H](CCCN=C(N)N)C(=O)NCC(N)=O)NC(=O)[C@H](CC(N)=O)NC1=O` [desmopressin] the “Total Sleep Time, Calculated Sleep Time, Change from Baseline, Mean” value ([1]; 10 μg) was 9.7 min, the “Total Sleep Time, Calculated Sleep Time, Change from Baseline, Median” value ([1]; 10 μg) was 10.0 min and the “Total Sleep Time, Reported Sleep Time, Change from Baseline, Mean” value ([1]; 10 μg) was 7.8 min. The “Total Sleep Time, Reported Sleep Time, Change from Baseline, Median” value ([1]; 10 μg) was 10.0 min, the “Total Sleep Time, Calculated Sleep Time, Change from Baseline, Mean” value ([1]; 25 μg) was 19.7 min and the “Total Sleep Time, Calculated Sleep Time, Change from Baseline, Median” value ([1]; 25 μg) was 15.3 min. The “Total Sleep Time, Reported Sleep Time, Change from Baseline, Mean” value ([1]; 25 μg) was 15.9 min, the “Total Sleep Time, Reported Sleep Time, Change from Baseline, Median” value ([1]; 25 μg) was 10.0 min and the “Total Sleep Time, Calculated Sleep Time, Change from Baseline, Mean” value ([1]; 50 μg) was 24.2 min. For the same compound, the “Total Sleep Time, Calculated Sleep Time, Change from Baseline, Median” value ([1]; 50 μg) was 14.2 min, the “Total Sleep Time, Reported Sleep Time, Change from Baseline, Mean” value ([1]; 50 μg) was 24.9 min and the “Total Sleep Time, Reported Sleep Time, Change from Baseline, Median” value ([1]; 50 μg) was 20.0 min. For the same compound, the “Total Sleep Time, Calculated Sleep Time, Change from Baseline, Mean” value ([1]; 100 μg) was 9.7 min, the “Total Sleep Time, Calculated Sleep Time, Change from Baseline, Median” value ([1]; 100 μg) was 12.0 min and the “Total Sleep Time, Reported Sleep Time, Change from Baseline, Mean” value ([1]; 100 μg) was 19.0 min. For the same compound, the “Total Sleep Time, Reported Sleep Time, Change from Baseline, Median” value ([1]; 100 μg) was 20.0 min, the “fewer nocturnal urinary voids per night compared to baseline before treatment (median)” value ([2]; 10 μg, all females) was “at least 1.0 voids per night” and the “Change from baseline to final visit (Day 28) of nocturnal voids, mean” value (“Change from baseline to final visit … mean” for short) ([2]; 10 ug, all females) was −1.15. For the same compound, the “Change from baseline to final visit (Day 28) of nocturnal voids, median” value (“Change from baseline to final visit … median” for short) ([2]; 10 ug, all females) was −1.00, the “Change from baseline to final visit … mean” value ([2]; 10 ug, all groups) was −0.83 and the “Change from baseline to final visit … median” value ([2]; 10 ug, all groups) was −0.67. For the same compound, the “Change from baseline to final visit … mean” value [2, 3] was −0.66, the “Change from baseline to final visit … median” value [2, 3] was −0.67 and the “Change from baseline to final visit … mean” value ([2]; 10 ug, all males) was −0.54. The “Change from baseline to final visit … median” value ([2]; 10 ug, all males) was −0.67, the “fewer nocturnal urinary voids per night compared to baseline before treatment (median)” value ([2]; 10 μg, females over 50 years of age) was “at least 1.0 voids per night” and the “Change from baseline to final visit … mean” value [2, 4] was −1.08. For the same compound, the “Change from baseline to final visit … median” value [2, 4] was −1.00, the “Change from baseline to final visit … mean” value [2, 5] was −0.93 and the “Change from baseline to final visit … median” value [2, 5] was −0.67. For the same compound, the “fewer nocturnal urinary voids per night compared to baseline before treatment (median)” value ([2]; 25 μg, all females) was “at least 1.0 voids per night”, the “Change from baseline to final visit … mean” value ([2]; 25 ug, all females) was −1.22 and the “Change from baseline to final visit … median” value ([2]; 25 ug, all females) was −1.33. For the same compound, the “Change from baseline to final visit … mean” value ([2]; 25 ug, all groups) was −1.00, the “Change from baseline to final visit … median” value ([2]; 25 ug, all groups) was −1.00 and the “Change from baseline to final visit … mean” value [2, 6] was −0.91. The “Change from baseline to final visit … median” value [2, 6] was −0.67, the “Change from baseline to final visit … mean” value ([2]; 25 ug, all males) was −0.83 and the “Change from baseline to final visit … median” value ([2]; 25 ug, all males) was −0.67. The “fewer nocturnal urinary voids per night compared to baseline before treatment (median)” value ([2]; 25 μg, females over 50 years of age) was “at least 1.0 voids per night”, the “Change from baseline to final visit … mean” value [2, 7] was −1.35 and the “Change from baseline to final visit … median” value [2, 7] was −1.33. For the same compound, the “fewer nocturnal urinary voids per night compared to baseline before treatment (median)” value ([2]; 25 μg, females over 65 years of age) was “at least 1.67 voids per night”, the “Change from baseline to final visit … mean” value [2, 8] was −1.27 and the “Change from baseline to final visit … median” value [2, 8] was −1.67. The “proportion of subjects with >75% reductions in the mean number of nocturnal voids” value ([2]; 50 μg, Day 28 (placebo 5%)) was 10%, the “proportion of subjects with >50% reductions in the mean number of nocturnal voids” value ([2]; 50 μg, Day 28 (placebo 20%)) was 28% and the “proportion of subjects with >33% reductions in the mean number of nocturnal voids” value ([2]; 50 μg, Day 28 (placebo 47%)) was 53%. For the same compound, the “Change from baseline to final visit … mean” value ([2]; 50 ug, all females) was −1.23, the “Change from baseline to final visit … median” value ([2]; 50 ug, all females) was −1.00 and the “Change from baseline to final visit … mean” value ([2]; 50 ug, all groups) was −1.18. For the same compound, the “Change from baseline to final visit … median” value ([2]; 50 ug, all groups) was −1.00, the “Change from baseline to final visit … mean” value [2, 9] was −1.09 and the “Change from baseline to final visit … median” value [2, 9] was −1.00. The “Change from baseline to final visit … mean” value ([2]; 50 ug, all males) was −1.13, the “Change from baseline to final visit … median” value ([2]; 50 ug, all males) was −1.00 and the “Change from baseline to final visit … mean” value [2, 10] was −1.15. For the same compound, the “Change from baseline to final visit … median” value [2, 10] was −1.00, the “Change from baseline to final visit … mean” value [2, 11] was −0.97 and the “Change from baseline to final visit … median” value [2, 11] was −1.00. For the same compound, the “Change from baseline to final visit … mean” value ([2]; 100 ug, all females) was −1.51, the “Change from baseline to final visit … median” value ([2]; 100 ug, all females) was −1.33 and the “Change from baseline to final visit … mean” value ([2]; 100 ug, all groups) was −1.43. For the same compound, the “Change from baseline to final visit … median” value ([2]; 100 ug, all groups) was −1.33, the “Change from baseline to final visit … mean” value [2, 12] was −1.41 and the “Change from baseline to final visit … median” value [2, 12] was −1.67. The “Change from baseline to final visit … mean” value ([2]; 100 ug, all males) was −1.38, the “Change from baseline to final visit … median” value ([2]; 100 ug, all males) was −1.33 and the “Change from baseline to final visit … mean” value [2, 13] was −1.44. For the same compound, the “Change from baseline to final visit … median” value [2, 13] was −1.33, the “Change from baseline to final visit … mean” value [2, 14] was −1.00 and the “Change from baseline to final visit … median” value [2, 14] was −1.00. For the same compound, the “minimum effective dose (MED)” value ([2]; females) was 25 µg and the “minimum effective dose (MED)” value ([2]; males) was 100 µg.
